Experimental data published in patent publication US20220370481A1, “VENETOCLAX DOSING REGIMENS FOR USE IN TREATING MYELODYSPLASTIC SYNDROMES IN COMBINATION WITH A CYP3A INHIBITOR AND AZACITIDINE” (priority 2021, published 2022).
Like-named read-outs stand apart in the source and are kept apart here.

System: adults with previously untreated higher-risk MDS
Settings: with azacitidine
Procedure: A multicenter, non-randomized Phase 1b study in adults with previously untreated higher-risk MDS, defined as IPSS risk categories of Int-2 or High (IPSS overall score ≥1.5) was initiated. The original protocol randomized patients into 1 of 3 treatment groups: venetoclax 800 mg + azacitidine, venetoclax 400 mg + azacitidine, and azacitidine monotherapy. Under the original protocol, venetoclax was administered on Days 1 through 28 of each 28-day-cycle and dosing was initiated according to a ramp-up dosing schedule in Cycle 1.
Subjects 18 years or older diagnosed with treatment-naïve IPSS intermediate-2 or high-risk myelodysplastic syndromes with ECOG ≤2 were enrolled. For this study, inclusion criteria included the following: • 1. Subject must be ≥18 years of age. • 2. Subject must have documented diagnosis of previously untreated de novo MDS with: • a. International Prognostic Scoring System (IPSS) risk categories Intermediate-2 or High (i.e., minimum IPSS score of 1.5) OR Revised IPSS (IPSS-R) categories Intermediate, High or Very High (score of >3); and • b. Presence of <20% bone marrow blasts per bone marrow biopsy/aspirate. • 3. Subject must have an Eastern Cooperative Oncology Group (ECOG) performance score of ≤2.
Azacitidine 75 mg/m^2 (intravenous or subcutaneous daily) was administered for 7 days and venetoclax was administered at 400 mg for 14 days in each 28 day cycle. In both cohorts, dose modification during Cycle 1 was not recommended. Dose modifications in subsequent cycles were prescribed for adverse events. […] In subsequent cycles, venetoclax duration could be shortened to 9 days of each cycle. In Safety Expansion Cohort 2 (SE2), dose modification guidelines recommended stepwise reductions, first in azacitidine dose (first to 50 mg/m^2, then 36 mg/m^2) and subsequently in venetoclax duration to 7 days of each cycle (venetoclax 400 mg) as shown in Table 4. The impact of each dose modification strategy on safety and efficacy in SE1 versus SE2 was compared. Worsening of treatment-emergent adverse events grades from baseline was analyzed by cycle. Responses were evaluated using IWG 2006 criteria. Analyses included all subject who received ≥1 dose of study drug.
After a previous interruption of treatment, delay starting the next cycle, onset of adverse events associated with hematological toxicity, significant reduction of neutrophils, or significant reduction of platelets, a treatment dose reduction may be indicated. […] Venetoclax and azacitidine were resumed on the same day after any delays or interruptions in treatment.

- Venetoclax dose delay by end of each cycle (Cycle 2, SE1, n = 22): 14 (63) n (%)
- Venetoclax dose delay by end of each cycle, Median # days (range) (Cycle 2, SE1, n = 22): 7.5 (1-21) days
- Venetoclax dose delay by end of each cycle (Cycle 2, SE2, n = 21): 13 (62) n (%)
- Venetoclax dose delay by end of each cycle, Median # days (range) (Cycle 2, SE2, n = 21): 8 (5-21) days
- Venetoclax dose delay by end of each cycle (Cycle 3, SE1, n = 22): 12 (55) n (%)
- Venetoclax dose delay by end of each cycle, Median # days (range) (Cycle 3, SE1, n = 22): 14 (3-28) days
- Venetoclax dose delay by end of each cycle (Cycle 3, SE2, n = 21): 10 (48) n (%)
- Venetoclax dose delay by end of each cycle, Median # days (range) (Cycle 3, SE2, n = 21): 8.5 (1-48) days
- Venetoclax dose delay by end of each cycle (Cycle 4, SE1, n = 22): 8 (36) n (%)
- Venetoclax dose delay by end of each cycle, Median # days (range) (Cycle 4, SE1, n = 22): 17 (1-54) days
- Venetoclax dose delay by end of each cycle (Cycle 4, SE2, n = 21): 6 (28) n (%)
- Venetoclax dose delay by end of each cycle, Median # days (range) (Cycle 4, SE2, n = 21): 9 (6-43) days
- Venetoclax dose delay by end of each cycle (Cycle 5, SE1, n = 22): 7 (32) n (%)
- Venetoclax dose delay by end of each cycle, Median # days (range) (Cycle 5, SE1, n = 22): 14 (3-28) days
- Venetoclax dose delay by end of each cycle (Cycle 5, SE2, n = 21): 9 (43) n (%)
- Venetoclax dose delay by end of each cycle, Median # days (range) (Cycle 5, SE2, n = 21): 14 (1-97) days
- Venetoclax dose delay by end of each cycle (Cycle 6, SE1, n = 22): 7 (32) n (%)
- Venetoclax dose delay by end of each cycle, Median # days (range) (Cycle 6, SE1, n = 22): 7 (1-21) days
- Venetoclax dose delay by end of each cycle (Cycle 6, SE2, n = 21): 5 (24) n (%)
- Venetoclax dose delay by end of each cycle, Median # days (range) (Cycle 6, SE2, n = 21): 14 (6-91) days
- Patients with ≥1 Ven dose amount reduction (SE1, n = 22): 10 (45) n (%)
- Venetoclax: Median days to duration reduction (SE1, n = 22): 52 days
- Patients with ≥1 Ven dose amount reduction (SE2, n = 21): 10 (48) n (%)
SMILES: CC1(C)CCC(CN2CCN(c3ccc(C(=O)NS(=O)(=O)c4ccc(NCC5CCOCC5)c([N+](=O)[O-])c4)c(Oc4cnc5[nH]ccc5c4)c3)CC2)=C(c2ccc(Cl)cc2)C1 [Venetoclax, 4-(4-{[2-(4-chlorophenyl)-4,4-dimethylcyclohex-1-en-1-yl]methyl}piperazin-1-yl)-N-({3nitro-4-[(tetrahydro-2H-pyran-4-ylmethyl)amino]phenyl}sulfonyl)-2-(1H-pyrrolo[2,3-b]pyridin5-yloxy)benzamide]
- # of reductions in Venetoclax duration (due to hematologic toxicity) (SE1, n = 22): 3 (14)
- # of reductions in Venetoclax duration (due to hematologic toxicity) (SE2, n = 21): 0
